# Measured values as given in patent US20260250269A1, “APOPTOSIS INHIBITOR SALTS FOR CANCER” (priority 2022, published 2026).
# Values joined by “and” are separate entries in the source; they are usually repeats but may differ in a detail not shown here. Identical values can stand only once. Like-named read-outs stand apart in the source and are kept apart here.
# Columns and labels:
# [1] = Competitive equilibration experiments of Form A and Form B; format: physicochemical
# Experimental: About 5 mg of Form A and about 5 mg of the mixture of Form A and Form B were added to 0.2 mL saturated solutions in following solvents: water, ethanol, acetone, acetonitrile, ethyl acetate, and pyridine/water (1/9 v/v). Obtained suspensions were stirred at 25° C. and 50° C., respectively, for a duration between 4 days to 4 weeks. Solid parts (wet cakes) were isolated by centrifugation filtration and investigated by XRPD.
# [2] = for Solubility / Solubility (in words): 37° C.; for Solubility: 24 hours; for Solubility (in words): PBS buffer
# [3] = Solid-state thermal stability of the pamoate salt Form B; format: physicochemical
# Experimental: Form B was placed at 25° C./92% relative humidity (RH) in an open container, at 40° C./75% RH in an open container, and at 60° C. in a tight container for 1 week. Samples were characterized by XRPD and HPLC and inspected for appearance including color change.
# [4] = Compression, dry grinding and wet granulation simulation experiments; format: physicochemical
# Experimental: Compression: About 50 mg of Form B was compressed for 5 minutes under 10 MPa with a hydraulic press. Potential form change and degree of crystallinity were evaluated by XRPD.
# Dry Grinding: About 20 mg of Form B was ground manually with a mortar and a pestle for 5 min. Potential form change and degree of crystallinity were evaluated by XRPD.
# Wet Granulation: Water or ethanol was added drop wise to about 20 mg of Form B until the sample was wetted sufficiently. Wet sample was ground gently with a mortar and a pestle for 3 min. Post granulation sample was dried under ambient condition for 10 min. Potential form change and degree of crystallinity were evaluated by XRPD.
# [5] = Hygroscopicity of Form B by dynamic vapor sorption (DVS); format: physicochemical
# Experimental: Water sorption and desorption behavior of Form B was investigated by dynamic vapor sorption (DVS) at 25° C. with a cycle of 40-0-95-0-40% RH, dm/dt 0.002, minimum equilibration time of 60 min and maximum equilibration time 360 min.
# [6] = Solid form conversion on drying, heating or storage (XRPD); format: physicochemical
# [7] = after solubility test in mouse plasma
# [8] = after solubility test in pH 7.4 PBS buffer
# [9] = 25° C./92% RH open container, 1 week
# [10] = 40° C./75% RH open container, 1 week
# [11] = 60° C. in a tight container, 1 week
# [12] = relative humidity 0.0 at 25° C.
# [13] = relative humidity 10.0 at 25° C.
# [14] = relative humidity 20.0 at 25° C.
# [15] = relative humidity 30.0 at 25° C.
# [16] = relative humidity 40.0 at 25° C.
# [17] = relative humidity 50.0 at 25° C.
# [18] = relative humidity 60.0 at 25° C.
# [19] = relative humidity 70.0 at 25° C.
# [20] = relative humidity 80.0 at 25° C.
# [21] = relative humidity 90.0 at 25° C.
# [22] = relative humidity 95.0 at 25° C.
structure (smiles),measurement,setting,value
COCCn1c2c([n+](Cc3cnccn3)c1C)C(=O)c1ccccc1C2=O.COCCn1c2c([n+](Cc3cnccn3)c1C)C(=O)c1ccccc1C2=O.O=C([O-])c1cc2ccccc2c(Cc2c(O)c(C(=O)[O-])cc3ccccc23)c1O [Form A],Solid form conversion in competitive experiments,"[1]; in ethanol, acetone, ACN and pyridine/water",converted to Form B
same,Form change by XRPD after solubility test,[2],no form change
same,Water solubility (in words),[2],extremely low
same,XRPD of residual solids,[2]; [7],Form A
same,XRPD of residual solids,[2]; [8],Form A
same,XRPD of residual solids,[2]; after solubility test in water,Form A
same,Solubility,[2]; mouse plasma,436 µg/mL and 403 µg/mL
same,Solubility,"[2]; pH 7.4, PBS buffer",84 µg/mL and 86 µg/mL
same,Solubility,[2]; water,12 µg/mL and 13 µg/mL
same,Solubility (in words),"[2]; water, mouse plasma",comparable low solubility
COCCn1c2c([n+](Cc3cnccn3)c1C)C(=O)c1ccccc1C2=O.COCCn1c2c([n+](Cc3cnccn3)c1C)C(=O)c1ccccc1C2=O.O=C([O-])c1cc2ccccc2c(Cc2c(O)c(C(=O)[O-])cc3ccccc23)c1O [Form B],Relative stability among solid forms,[1]; among Forms A-J,most stable form among Forms A-J
same,Appearance (Color) change,[3]; [9],None
same,Purity by HPLC,[3]; [9],99.4%
same,XRPD,[3]; [9],Form B
same,Physical and chemical stability,"[3]; 25° C./92% RH, 40° C./75% RH, 60° C., 1 week",physically stable and chemically stable
same,Appearance (Color) change,[3]; [10],None
same,Purity by HPLC,[3]; [10],99.5%
same,XRPD,[3]; [10],Form B
same,Appearance (Color) change,[3]; [11],none
same,Purity by HPLC,[3]; [11],99.4%
same,XRPD,[3]; [11],Form B
same,Appearance (Color) change,[3]; Initial,None
same,Purity by HPLC,[3]; Initial,99.3%
same,XRPD,[3]; Initial,Form B
same,Form change and crystallinity by XRPD after compression,"[4]; 5 minutes under 10 MPa, hydraulic press",no form change and no obvious crystallinity decrease
same,Form change and crystallinity by XRPD after dry grinding,[4]; ground manually with mortar and pestle for 5 min,no form change and slight crystallinity decrease
same,Form change and crystallinity by XRPD after wet granulation,"[4]; water or ethanol, ground 3 min, dried 10 min",no form change and no obvious crystallinity decrease
same,Solid form by XRPD after the DVS test,[5],still Form B
same,Hygroscopicity (in words),[5]; DVS at 25° C.,slightly hygroscopic
same,1st desorption weight % change,[5]; [12],0.02 weight %
same,1st sorption weight % change,[5]; [12],0.02 weight %
same,2nd desorption weight % change,[5]; [12],0.00 weight %
same,2nd sorption weight % change,[5]; [12],0.00 weight %
same,1st desorption weight % change,[5]; [13],0.06 weight %
same,1st sorption weight % change,[5]; [13],0.06 weight %
same,2nd desorption weight % change,[5]; [13],0.05 weight %
same,2nd sorption weight % change,[5]; [13],0.04 weight %
same,1st desorption weight % change,[5]; [14],0.09 weight %
same,1st sorption weight % change,[5]; [14],0.08 weight %
same,2nd desorption weight % change,[5]; [14],0.08 weight %
same,2nd sorption weight % change,[5]; [14],0.06 weight %
same,1st desorption weight % change,[5]; [15],0.13 weight %
same,1st sorption weight % change,[5]; [15],0.11 weight %
same,2nd desorption weight % change,[5]; [15],0.10 weight %
same,2nd sorption weight % change,[5]; [15],0.08 weight %
same,1st desorption weight % change,[5]; [16],0.16 weight %
same,1st sorption weight % change,[5]; [16],0.12 weight %
same,2nd desorption weight % change,[5]; [16],0.13 weight %
same,2nd sorption weight % change,[5]; [16],0.10 weight %
same,1st sorption weight % change,[5]; [17],0.15 weight %
same,2nd desorption weight % change,[5]; [17],0.16 weight %
same,1st sorption weight % change,[5]; [18],0.17 weight %
same,2nd desorption weight % change,[5]; [18],0.18 weight %
same,1st sorption weight % change,[5]; [19],0.20 weight %
same,2nd desorption weight % change,[5]; [19],0.21 weight %
same,1st sorption weight % change,[5]; [20],0.23 weight %
same,2nd desorption weight % change,[5]; [20],0.25 weight %
same,1st sorption weight % change,[5]; [21],0.35 weight %
same,2nd desorption weight % change,[5]; [21],0.38 weight %
same,1st sorption weight % change,[5]; [22],0.64 weight %
same,2nd desorption weight % change,[5]; [22],0.64 weight %
same,Water absorbed,[5]; up to 95% RH at 25° C.,about 0.64%
same,Form change by XRPD after solubility test,[2],no form change
same,XRPD of residual solids,[2]; [7],Form B
same,XRPD of residual solids,[2]; [8],Form B
same,XRPD of residual solids,[2]; after solubility test in water,Form B
same,Solubility,[2]; mouse plasma,342 µg/mL and 344 µg/mL
same,Solubility,"[2]; pH 7.4, PBS buffer",78 µg/mL
same,Solubility,[2]; water,14 µg/mL and 13 µg/mL
same,Solubility (in words),"[2]; water, mouse plasma",comparable low solubility
CCO.COCCn1c2c([n+](Cc3cnccn3)c1C)C(=O)c1ccccc1C2=O.COCCn1c2c([n+](Cc3cnccn3)c1C)C(=O)c1ccccc1C2=O.O=C([O-])c1cc2ccccc2c(Cc2c(O)c(C(=O)[O-])cc3ccccc23)c1O [Form C],Solid form conversion,[6]; exposure to ambient condition about 2 hours and drying at 25° C. under vacuum about 2 hours,converted to a mixture of Form A and Form B
CC(=O)N(C)C.COCCn1c2c([n+](Cc3cnccn3)c1C)C(=O)c1ccccc1C2=O.COCCn1c2c([n+](Cc3cnccn3)c1C)C(=O)c1ccccc1C2=O.O=C([O-])c1cc2ccccc2c(Cc2c(O)c(C(=O)[O-])cc3ccccc23)c1O [Form G],Solid form obtained on storage,[6]; storing at 25° C. for about 1 day,Form H
CC(=O)N(C)C.COCCn1c2c([n+](Cc3cnccn3)c1C)C(=O)c1ccccc1C2=O.COCCn1c2c([n+](Cc3cnccn3)c1C)C(=O)c1ccccc1C2=O.O=C([O-])c1cc2ccccc2c(Cc2c(O)c(C(=O)[O-])cc3ccccc23)c1O [Form H],Solid form conversion,[6]; after heating to 170° C.,converted to a mixture of Form A and Form B
